The NIST ThermoML archive (doi:10.1016/j.jct.2015.10.006)

Settings: Liquid, Frequency=8 MHz, Pulse-echo method

CCCCO [butan-1-ol]
Settings | speed of sound [m/s]
253.15 K, 108 kPa | 1399.2
253.15 K, 5065 kPa | 1423.1
253.15 K, 10086 kPa | 1446.2
253.15 K, 15035 kPa | 1468.3
253.15 K, 20115 kPa | 1490.2
253.15 K, 25062 kPa | 1510.8
253.15 K, 30526 kPa | 1532.7
273.15 K, 103 kPa | 1326.1
273.15 K, 5008 kPa | 1351.9
273.15 K, 10094 kPa | 1377.2
273.15 K, 15185 kPa | 1401.4
273.15 K, 20115 kPa | 1424.1
273.15 K, 25088 kPa | 1446.1
273.15 K, 30170 kPa | 1467.9
293.15 K, 104 kPa | 1256.4
293.15 K, 5067 kPa | 1284.6
293.15 K, 10144 kPa | 1311.7
293.15 K, 15081 kPa | 1336.9
293.15 K, 20094 kPa | 1361.5
293.15 K, 25087 kPa | 1385
293.15 K, 30176 kPa | 1408.1
313.15 K, 100 kPa | 1189.2
313.15 K, 5050 kPa | 1219.2
313.15 K, 10082 kPa | 1248.2
313.15 K, 15167 kPa | 1276
313.15 K, 20187 kPa | 1302.2
313.15 K, 25473 kPa | 1328.5
313.15 K, 30162 kPa | 1351
333.15 K, 99 kPa | 1122.9
333.15 K, 5055 kPa | 1155.5
333.15 K, 10099 kPa | 1186.8
333.15 K, 15058 kPa | 1215.8
333.15 K, 20149 kPa | 1244.2
333.15 K, 25167 kPa | 1270.8
333.15 K, 30276 kPa | 1296.8
353.15 K, 100 kPa | 1056.4
353.15 K, 5013 kPa | 1091.6
353.15 K, 10032 kPa | 1125.3
353.15 K, 15066 kPa | 1157.1
353.15 K, 20085 kPa | 1187
353.15 K, 25075 kPa | 1215.1
353.15 K, 30204 kPa | 1242.7

CCO [ethanol]
Settings | speed of sound [m/s]
253.15 K, 101 kPa | 1304.8
253.15 K, 4988 kPa | 1329.9
253.15 K, 10126 kPa | 1355.1
253.15 K, 15056 kPa | 1378.4
253.15 K, 19988 kPa | 1400.8
253.15 K, 25051 kPa | 1423
253.15 K, 30366 kPa | 1445.5
273.15 K, 101 kPa | 1230.4
273.15 K, 5095 kPa | 1258.5
273.15 K, 10288 kPa | 1286.1
273.15 K, 15102 kPa | 1310.6
273.15 K, 19986 kPa | 1334.4
273.15 K, 25007 kPa | 1357.9
273.15 K, 30061 kPa | 1380.6
293.15 K, 101 kPa | 1159.8
293.15 K, 5052 kPa | 1190
293.15 K, 9984 kPa | 1218.5
293.15 K, 15097 kPa | 1246.4
293.15 K, 20038 kPa | 1272.2
293.15 K, 25073 kPa | 1297.3
293.15 K, 30034 kPa | 1321
313.15 K, 101 kPa | 1091.6
313.15 K, 5015 kPa | 1124.4
313.15 K, 10081 kPa | 1156
313.15 K, 15057 kPa | 1185.3
313.15 K, 20137 kPa | 1213.6
313.15 K, 25255 kPa | 1240.7
313.15 K, 30161 kPa | 1265.5
333.15 K, 101 kPa | 1024.9
333.15 K, 5287 kPa | 1062.5
333.15 K, 10309 kPa | 1096.4
333.15 K, 15132 kPa | 1126.9
333.15 K, 20140 kPa | 1156.7
333.15 K, 25071 kPa | 1184.6
333.15 K, 30117 kPa | 1211.7
353.15 K, 110 kPa | 957.67
353.15 K, 5428 kPa | 1000.1
353.15 K, 10327 kPa | 1036.1
353.15 K, 15492 kPa | 1071.3
353.15 K, 20337 kPa | 1102.3
353.15 K, 25296 kPa | 1132.1
353.15 K, 29944 kPa | 1158.6

CO [methanol]
Settings | speed of sound [m/s]
253.15 K, 101 kPa | 1259.4
253.15 K, 5031 kPa | 1283.6
253.15 K, 10064 kPa | 1307.3
253.15 K, 15070 kPa | 1329.9
253.15 K, 20048 kPa | 1351.5
253.15 K, 25130 kPa | 1372.8
253.15 K, 30260 kPa | 1393.5
273.15 K, 101 kPa | 1187.3
273.15 K, 5017 kPa | 1213.8
273.15 K, 10158 kPa | 1240
273.15 K, 15070 kPa | 1264
273.15 K, 20132 kPa | 1287.6
273.15 K, 25155 kPa | 1310.1
273.15 K, 30074 kPa | 1331.4
293.15 K, 101 kPa | 1119.1
293.15 K, 5028 kPa | 1147.8
293.15 K, 10032 kPa | 1175.5
293.15 K, 15145 kPa | 1202.4
293.15 K, 20159 kPa | 1227.6
293.15 K, 25062 kPa | 1251.1
293.15 K, 30276 kPa | 1275.1
313.15 K, 101 kPa | 1053.2
313.15 K, 5046 kPa | 1084.8
313.15 K, 10127 kPa | 1115.4
313.15 K, 15085 kPa | 1143.5
313.15 K, 19989 kPa | 1170
313.15 K, 25090 kPa | 1196.1
313.15 K, 30009 kPa | 1220.1
333.15 K, 101 kPa | 988.92
333.15 K, 5029 kPa | 1023.7
333.15 K, 10110 kPa | 1056.9
333.15 K, 15215 kPa | 1088.2
333.15 K, 20093 kPa | 1116.3
333.15 K, 25061 kPa | 1143.5
333.15 K, 30122 kPa | 1169.9
353.15 K, 197 kPa | 925.58
353.15 K, 5097 kPa | 963.76
353.15 K, 10106 kPa | 999.62
353.15 K, 15143 kPa | 1033
353.15 K, 20216 kPa | 1064.5
353.15 K, 25221 kPa | 1093.7
353.15 K, 30092 kPa | 1120.6

CCCO [propan-1-ol]
Settings | speed of sound [m/s]
253.15 K, 102 kPa | 1368
253.15 K, 5133 kPa | 1393
253.15 K, 10109 kPa | 1416.6
253.15 K, 15198 kPa | 1439.9
253.15 K, 20092 kPa | 1461.4
253.15 K, 25341 kPa | 1483.7
253.15 K, 30423 kPa | 1504.6
273.15 K, 101 kPa | 1293.5
273.15 K, 5181 kPa | 1320.8
273.15 K, 10163 kPa | 1346.3
273.15 K, 15287 kPa | 1371.4
273.15 K, 20261 kPa | 1394.8
273.15 K, 25076 kPa | 1416.6
273.15 K, 30164 kPa | 1438.9
293.15 K, 105 kPa | 1222.5
293.15 K, 5042 kPa | 1251.2
293.15 K, 10141 kPa | 1279.3
293.15 K, 15272 kPa | 1306.3
293.15 K, 20136 kPa | 1330.7
293.15 K, 25068 kPa | 1354.6
293.15 K, 30231 kPa | 1378.5
313.01 K, 30237 kPa | 1321.2
313.15 K, 108 kPa | 1154.1
313.15 K, 5139 kPa | 1185.8
313.15 K, 10136 kPa | 1215.4
313.15 K, 15128 kPa | 1243.6
313.15 K, 20151 kPa | 1270.6
313.15 K, 25136 kPa | 1296.1
333.15 K, 101 kPa | 1086.8
333.15 K, 5018 kPa | 1120.5
333.15 K, 10050 kPa | 1152.8
333.15 K, 15186 kPa | 1183.9
333.15 K, 20183 kPa | 1212.5
333.15 K, 25121 kPa | 1239.5
333.15 K, 30028 kPa | 1265
353.15 K, 104 kPa | 1018.9
353.15 K, 5034 kPa | 1056
353.15 K, 10009 kPa | 1090.8
353.15 K, 15132 kPa | 1124.2
353.15 K, 20099 kPa | 1154.8
353.15 K, 25054 kPa | 1183.6
353.15 K, 30493 kPa | 1213.6
